# Reference: US5475015A, “Benzimidazole derivatives, their preparation and pharmaceutical use” (NeuroSearch A/S, priority 1993, dated 1995)
# Tests used:
# [1] = tested on: BK channel; assay: Single channel experiments in cultured bovine aortic smooth muscle cells; type: cell-based; settings: 3 μM
# Experimental: (§1) All experiments were performed with patch-clamp technique (Hamill et al., Pflugers Arch. 391, 85-100 (1981)). The ion composition of the internal solution was (in mM) 140 KCl, 1 CaCl2, 1 MgCl2, 2 EGTA, 10 HEPES and the external solution contained 140 NaCl, 4 KCl, 2 CaCl2, 1 MgCl2 and 10 HEPES.
# [2] = tested on: calf aortic smooth muscle cells; assay: Whole-cell current clamp recording of membrane potential; type: cell-based; settings: 10 μM to the bath
# Experimental: as §1
# The membrane potential of calf aortic smooth muscle cells was determined in whole-cell recordings using current clamp mode (HEKA EPC-9 patch-clamp amplifier). Due to the high-resistance seal and the large size of these cells the recorded membrane potential stayed stable for periods of 30-60 min, although at somewhat depolarized values (-58--22 mV). Administration of for example 1-(5-trifluoromethyl-2-hydroxyphenyl)-5-trifluoromethyl-1,3-dihydro-2H-benzimidazol-2-one (10 μM) to the bath hyperpolarized the cells after a delay of 1-3 min. The average hyperpolarization was -20 mV (SD=-9 mV, n=7), and the effect was largest in the cells being most depolarized prior to administration of the compound.
# The equilibrium potential for K+, Cl-, and Na+ in these experiments were -90 mV, 0 mV, and +90 mV, respectively (cf. ion composition above). Thus, since potassium is the only ion having a reversal potential more negative than the resting membrane potential the observed hyperpolarization induced by the test compound must be explained through an increased potassium conductance.
# [3] = tested on: cocaine induced hypermotility; assay: Cocaine motility test; type: in vivo, NMRI mice
# Experimental: The compound, 5-trifluoromethyl-1-(5-trifluoromethyl-2-hydroxyphenyl)-1,3-dihydro-2H-benzimidazole-2-one, has been studied in the cocaine motility test. Cocaine induces hypermotility due to an inhibition of dopamine reuptake. The test is recognized as a test predicting anti-psychotic activity.
# Method: Two female NMRI mice (20-25 g) are placed in each test box (normal transparent plexiglas cage, w, l, h=21×39×19 cm ) in the test room for at least 16 hours with food and water ad libitum before the test in order for the animals to habituate to the situation. The test compound is administered i.p. 15 min before saline or 25 mg/kg cocaine i.p. to 32 mice (16 boxes) per dose. Food and water are withdrawn, and the motility is measured as the number of interrupted infrared photo-beams (8 per box placed 5 cm apart and 3 cm over the bottom of the cage) in the next 120 min.
# [4] = tested on: Cl- channels; assay: Single channel experiments, inside-out patches of cerebellar granule cell membrane: Cl- channels; type: cell-based; settings: 3 μM
# Experimental: as §1
# (§2) In inside-out patches of cerebellar granule cell membrane single BK channels were activated by for example 5-trifluoromethyl1-(5-trifluoromethyl-2-hydroxyphenyl)-1,3-dihydro-2H-benzimidazole-2-one (3 μM). […] No effect was found on the delayed rectifier K+ channel or on the Cl- channels also present in the patches.
# [5] = tested on: acetylcholine-contracted guinea-pig ileum; assay: Guinea-pig ileum experiment (relaxation of acetylcholine-contracted ileum)
# Experimental: The compound, 5-trifluoromethyl-1-(5-trifluoromethyl-2-hydroxyphenyl)-1,3-dihydro-2H-benzimidazole-2-one, has been studied for its ability to relax acetylcholine-contracted guinea-pig ileum. The smooth muscle cells of the ileum express many BK channels and the model predicts relaxing effects on the gastrointestinal or urogenital tracts. […] The effect of 30 μM compound is reversed by the BK channel blocker TEA+ (1-3 mM), confirming that the relaxing effect is mediated via BK channels.
# Method: Ileum from guinea-pigs are isolated and mounted in an isometric contraction chamber. It is bathed in a physiological Krebs solution at 98° F. The ileum is precontracted with increasing concentrations of acetylcholine (0.015-5.0 μM). The contractions are reversed by including the compound in the bathing solution.
# [6] = tested on: delayed rectifier K+ channel; assay: Single channel experiments, inside-out patches of cerebellar granule cell membrane: delayed rectifier; type: cell-based; settings: 3 μM
# Experimental: as §1, §2
# [7] = tested on: BK channel; assay: Single channel experiments, inside-out patches of cerebellar granule cell membrane; type: cell-based; settings: 3 μM
# Experimental: as §1
# [8] = tested on: Guinea pig trachea; assay: Trachea experiment (vagus nerve stimulated pressure increase)
# Excerpt: The compound, 5-trifluoromethyl-1-(5-trifluoromethyl-2-hydroxyphenyl)-1,3-dihydro-2H-benzimidazole-2-one, has been studied in a trachea model in which relaxation predicts anti-asthmatic potential.
# Method: Guinea pig trachea is isolated with intact vagus nerve. Tubes are inserted into both ends and ligated tightly so the pressure in the fluid-filled lumen can be monitored. Electrical stimulation of the vagus nerve leads to a contraction and a pressure increase. The difference in electrically-stimulated pressure increase in the absence and presence of compound is measured.
smiles,measurement,setting,value
"O=c1[nH]c2cc(C(F)(F)F)ccc2n1-c1cc(C(F)(F)F)ccc1O [Example 6, 1-(2-Hydroxy-5-trifluoromethylphenyl)-5-trifluoromethyl-1,3-dihydro-2H-benzimidazol-2-one]",activation of the BK channel,[1],significantly activated
same,delay before hyperpolarization of the cells,[2],1 to 3 min
same,average hyperpolarization,"[2]; current clamp, SD=-9 mV, n=7",-20 mV
same,effect of compound by itself on motility,"[3]; 30 mg/kg, without cocaine",weak hyperactivity
same,antagonism of cocaine induced hypermotility,"[3]; 1-10 mg/kg i.p. 15 min before 25 mg/kg cocaine i.p., mice, motility over 120 min",antagonizes cocaine induced hypermotility
same,effect on the Cl- channels,[4],No effect
same,effect of BK channel blocker TEA+ on the relaxing effect,"[5]; 30 μM compound, TEA+ 1-3 mM",reversed
same,relaxation of acetylcholine-contracted ileum,[5]; 3-30 μM,relaxes the ileum in a dose-dependent way
same,effect on the delayed rectifier K+ channel,[6],No effect
same,increase of the open probability of the BK channel,[7],several hundred percent
same,potentiation of the relaxing effect of lemakalim,[8]; 10 μM compound,10 x
same,relaxation of trachea,[8]; 10-100 μM,relaxes trachea in a dose-dependent way
